Measured values: patent publication US9169213B2, “Method of weight management” (Arena Pharmaceuticals, Inc., priority 2012, dated 2015)

Key:
Format in all cases: in vivo, human
[1] = Pooled BLOOM and BLOSSOM Phase 3 studies: Week 52 outcomes by Week 12/Week 24 responder status, patients without T2DM
Protocol: APD356-009 (“BLOOM”) was a 104-week, placebo controlled study that assessed the safety and efficacy of lorcaserin 10 mg BID in overweight and obese patients, with concurrent behavior modification. The primary efficacy objective during Year 1 was to evaluate weight loss; the primary objective during Year 2 was to assess the ability of lorcaserin to maintain body weight loss that was achieved during Year 1. At study start, each patient received randomized, double blind treatment assignments for Year 1 and for Year 2 (all patients were given a new randomization number for Year 2 to assure that patients and study personnel remained blinded to treatment assignments). All patients assigned to placebo during Year 1 (50% of randomized population) remained on placebo in Year 2. Patients assigned to lorcaserin during Year 1 were randomly assigned to stay on lorcaserin during Year 2 (⅔ of Year 1 lorcaserin patients) or to switch to placebo (⅓ of Year 1 lorcaserin patients).
APD356-011 (“BLOSSOM”) was a 52-week, placebo controlled study that evaluated the effect of two lorcaserin doses (10 mg BID and 10 mg QD) on categorical and total weight loss with concurrent behavior modification. Patients were randomized in a ratio of 2:1:2 to lorcaserin 10 mg BID, 10 mg QD, or placebo.
(§1) An analysis of early weight loss was performed, at each visit after baseline through Week 24, as a predictor of ultimate weight loss success, as defined by achieving at least about 5% weight loss at 52 weeks, or at least about 10% weight loss at 52 weeks.

[2] = BLOOM-DM (APD356-010) Phase 3 study: Week 52 outcomes by Week 12/Week 24 responder status, patients with type 2 diabetes mellitus
Protocol: APD356-010 (BLOOM-DM) was a 52-week, placebo controlled study that evaluated the effect of two lorcaserin doses (10 mg BID and 10 mg QD) on categorical and total weight loss with concurrent behavior modification in 604 patients with type 2 diabetes mellitus managed with oral hypoglycemic agents. Randomization to the 10 mg once daily group was halted by protocol amendment in order to accelerate enrollment, resulting in final group sizes of 253 (placebo), 95 (lorcaserin QD) and 256 (lorcaserin BID).
as §1
Table 3 and Table 4 provide the sensitivity, specificity, positive predicted value (PPV) and negative predictive value (NPV) at Weeks 12 and 24 for at least about 5% and at least about 10% weight loss at Week 52 in different studies. The rounded percent weight loss at Week 12 for at least 5% and at least about 10% weight loss at Week 52 are about 5% and about 6%, respectively. Using the about 6% weight loss at Week 12 as a criterion enhances the PPV for both about 5% and about 10% categorical weight loss at Week 52, but at the expense of excluding about 10% and about 4% more of the about 5% categorical responders at Week 52 in patients without and with diabetes, respectively, based upon NPV. The rounded optimal thresholds at Week 24 for at least about 5% and at least about 10% weight loss at Week 52 are about 6% and about 9%, respectively. Using the 9% weight loss criterion at Week 24 enhances the PPV for both about 5% and about 10% categorical weight loss at Week 52, but at the expense of excluding about 19% and about 9% more of the about 5% categorical responders at Week 52 in patients without and with diabetes, respectively, based upon NPV. As described below, if at least about a 5% weight loss criterion is applied, patients achieving this milestone will achieve an average of about 10.8% weight loss in patients without diabetes and about 9.1% weight loss in patients with diabetes at Week 52.
(§2) Tables 6 and 7, below, present weight loss, vital sign, and glycemic changes at Week 52 in pooled patients without diabetes, patients with T2DM, and pooled patients with impaired fasting glucose (IFG; ≧100 mg/dL) who were Week 12 responders.

[3] = Pooled patients with impaired fasting glucose (IFG) who were Week 12 responders: Week 52 outcomes
Protocol: as §2

[4] = Week 12 Responder (≧5% weight loss), MITT with LOCF, 10 mg BID
[5] = Week 12 responders without diabetes
[6] = Week 12 responders, patients without T2DM, 10 mg BID
[7] = all patients without T2DM, MITT-LOCF
[8] = percent change from baseline at Week 52, Week 12 responders, patients without T2DM, 10 mg BID
[9] = Week 12 responders, patients with T2DM, 10 mg BID
[10] = all patients with T2DM, MITT-LOCF
[11] = percent change from baseline at Week 52, Week 12 responders, patients with T2DM, 10 mg BID
[12] = Week 12 responders with impaired fasting glucose (IFG) at baseline
[13] = Week 12 responders, patients with IFG, 10 mg BID
[14] = percent change from baseline at Week 52, Week 12 responders, patients with IFG, 10 mg BID

Substance: (R)-8-chloro-1-methyl-2,3,4,5-tetrahydro-1H-3-benzazepine hydrochloride salt hemihydrate [drug]
- Week 52 Weight 5% Responder [1, 4]: 86%
- Week 52 Weight 10% Responder [1, 4]: 50%
- Week 52 reduction in diastolic blood pressure [1, 5]: 2.5 mmHg
- Week 52 reduction in heart rate [1, 5]: 2.5 BPM
- Week 52 reduction in systolic blood pressure [1, 5]: 3.4 mmHg
- A1C W52 Change [1, 6]: −0.18%
- DBP W52 Change [1, 6]: −2.5 mmHg
- FPG W52 Change [1, 6]: -2.2 mg/dL
- Heart Rate W52 Change [1, 6]: −2.5 bpm
- SBP W52 Change [1, 6]: −3.4 mmHg
- Weight Loss ≧5% (%) at W52 [1, 6]: 85.5%
- Weight Loss ≧10% (%) at W52 [1, 6]: 49.8%
- proportion achieving ≧5% weight loss at Week 52 [1, 7]: 47%
- weight loss at Week 52 [1, 7]: 5.8 kg
- Week 12 Responder (at least 5% weight loss at Week 12), percentage of patients ([1]; of patients with observed Week 12 data, without diabetes, 10 mg BID): 49.3%
- HDL-C (mg/dL)* W52 Change [1, 8]: 4.6%
- LDL-C (mg/dL)* W52 Change [1, 8]: 1.1%
- Total Cholesterol (mg/dL)* W52 Change [1, 8]: −1.7%
- Triglycerides (mg/dL)* W52 Change [1, 8]: −14.5%
- Week 52 Weight 5% Responder [2, 4]: 71%
- Week 52 Weight 10% Responder [2, 4]: 36%
- Week 52 reduction in diastolic blood pressure ([2]; Week 12 responders with T2DM): 1.9 mmHg
- Week 52 reduction in heart rate ([2]; Week 12 responders with T2DM): 3.2 BPM
- Week 52 reduction in systolic blood pressure ([2]; Week 12 responders with T2DM): 2.6 mmHg
- A1C W52 Change [2, 9]: −1.2%
- DBP W52 Change [2, 9]: −1.9 mmHg
- FPG W52 Change [2, 9]: -29.3 mg/dL
- Heart Rate W52 Change [2, 9]: −3.2 bpm
- SBP W52 Change [2, 9]: −2.6 mmHg
- Weight Loss ≧5% (%) at W52 [2, 9]: 70.5%
- Weight Loss ≧10% (%) at W52 [2, 9]: 35.9%
- Weight W52 Change [2, 9]: -9.3 kg
- proportion achieving ≧5% weight loss at Week 52 [2, 10]: 38%
- weight loss at Week 52 [2, 10]: 4.7 kg
- Week 52 reduction in A1C ([2]; diabetic Week 12 responders): 1.2%
- Week 52 reduction in FPG ([2]; diabetic Week 12 responders): 29.3 mg/dL
- Week 12 Responder (at least 5% weight loss at Week 12), percentage of patients ([2]; of patients with observed Week 12 data, type 2 diabetes, 10 mg BID): 35.9%
- HDL-C (mg/dL)* W52 Change [2, 11]: 8.8%
- LDL-C (mg/dL)* W52 Change [2, 11]: 1.4%
- Total Cholesterol (mg/dL)* W52 Change [2, 11]: −0.7%
- Triglycerides (mg/dL)* W52 Change [2, 11]: −17.8%
- Week 52 reduction in A1C [3, 12]: 0.4%
- Week 52 reduction in FPG [3, 12]: 7.8 mg/dL
- A1C W52 Change [3, 13]: −0.11%
- DBP W52 Change [3, 13]: −1.5 mmHg
- FPG W52 Change [3, 13]: -7.8 mg/dL
- Heart Rate W52 Change [3, 13]: −3.7 bpm
- SBP W52 Change [3, 13]: −1.7 mmHg
- Weight Loss ≧5% (%) at W52 [3, 13]: 88.8%
- Weight Loss ≧10% (%) at W52 [3, 13]: 52.4%
- Weight W52 Change [3, 13]: -11.2 kg
- HDL-C (mg/dL)* W52 Change [3, 14]: 2.1%
- LDL-C (mg/dL)* W52 Change [3, 14]: 2.5%
- Total Cholesterol (mg/dL)* W52 Change [3, 14]: −2.3%
- Triglycerides (mg/dL)* W52 Change [3, 14]: −15.5%
